Patent publication US9233978B2, “6-fused heteroaryldihydropyrimidines for the treatment and prophylaxis of hepatitis B virus infection” (Hoffmann-La Roche Inc., priority 2014, dated 2016)
Converted amounts (≈) assume the structure as drawn.

Assays:
HBV = experiment: Anti-HBV activity in vitro, HepG2.2.15 cells, extracellular HBV DNA by qPCR; format: cell-based; details: Hepatitis B virus, HepG2.2.15, 120 h, HepG2.2.15 cells; HBV replication inhibited by 50%, extracellular HBV DNA by qPCR; five days after compound treatment; read-out: EC50
How it was run: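 Extracellular HBV DNA in culture supernatant was measured by qPCR after nucleic acid extraction. The supernatant came from constitutively replicating HepG2.2.15 cells exposed for five days to half-log-diluted compounds, with DMSO at 0.5% final. Cells had been plated overnight at 37 °C beforehand.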

[1] = Human microsomal metabolic stability; format: in vitro ADME; details: human microsomes 0.5 mg/mL, 1 μM test compound, NADPH, 37° C., pH 7.4, 0-30 minutes
Method: Human Microsomes (BD Gentest) were preincubated with test compound for 10 minutes at 37° C. in 100 mM phosphate buffer, pH 7.4. The reactions were initiated by adding NADPH or NADPH regenerating system to give a final incubation volume of 400 μL. For NADPH system, the final incubations contained 1 μM test compound, 0.5 mg/mL liver microsomal protein, 1 mM NADPH in 100 mM phosphate buffer, pH 7.4. For the NADPH regenerating system, the final incubations contained 1 μM test compound, 0.5 mg/mL liver microsomal protein, 3 mM glucose 6-phosphate, 1 mM NADP, 3 mM MgCl2 and 0.05 mg/mL glucose 6-phosphate dehydrogenase in 100 mM phosphate buffer, pH 7.4. After incubation times of 0, 3, 6, 9, 15 and 30 minutes at 37° C., 1 sample was obtained from each time point and 50 μL of each sample was removed and transferred to 150 μL of methanol solution which was maintained at 4° C. and contained 2 μM tolbutamide as internal standard. Following precipitation and centrifugation, the amount of compound remaining in the samples were determined by LC-MS/MS. Controls of no NADPH or no NADPH regenerating system at zero and 30 minutes were also prepared and analyzed.

Lysa solubility = format: physicochemical; details: phosphate buffer, pH 6.5, aqueous buffer, thermodynamic from solid, 0.05 M phosphate buffer (pH 6.5)
Method: Samples were prepared in duplicate from 10 mM DMSO stock solutions. After evaporation of DMSO with a centrifugal vacuum evaporator, the residue was solved in 0.05 M phosphate buffer (pH 6.5), stirred for one hour and shook for two hours. After one night, the solution was filtered using a microtiter filter plate. Then the filtrate and its 1/10 dilution were analyzed by direct UV measurement or by HPLC-UV. […] The results were in μg/mL. In case the percentage of sample measured in solution after evaporation divided by the calculated maximum of sample amount was over 80%, the solubility was reported as higher than this value.

Structure (SMILES) | EC50 (HBV) [nM] | Human Microsomal Clearance [1] [mL/min/kg] | solubility thermodynamic (Lysa solubility) [µg/mL]
CCOC(=O)C1=C(CN2CCN3C(=O)N(CC(C)C(=O)O)C[C@@H]3C2)NC(c2nccs2)=N[C@H]1c1ccccc1Cl (stereo partly drawn) [Example 20, 3-[(8aS)-7-[[(4R)-4-(2-chlorophenyl)-5-ethoxycarbonyl-2-thiazol-2-yl-1,4-dihydropyrimidin-6-yl]methyl]-3-oxo-5,6,8,8a-tetrahydro-1H-imidazo[1,5-a]pyrazin-2-yl]-2-methyl-propanoic acid] | 52 | 0.1 | > 780
CCOC(=O)C1=C(CN2CCN3C(=O)N(c4ccccc4C(=O)O)C[C@@H]3C2)NC(c2nccs2)=N[C@H]1c1cccc(F)c1Cl [Example 28, (R)-6-[(S)-2-(2-Carboxy-phenyl)-3-oxo-hexahydro-imidazo[1,5-a]pyrazin-7-ylmethyl]-4-(2-chloro-3-fluoro-phenyl)-2-thiazol-2-yl-1,4-dihydro-pyrimidine-5-carboxylic acid ethyl ester] | 30 | 4.4 | 337 (≈ 527 µM)
COC(=O)C1=C(CN2CCN3C(=O)N(C(C)C)CC3(CC(=O)O)C2)NC(c2nccs2)=N[C@H]1c1ccc(F)cc1Cl (stereo partly drawn) [Example 31, 2-[7-[[(4R)-4-(2-chloro-4-fluoro-phenyl)-5-methoxycarbonyl-2-thiazol-2-yl-1,4-dihydropyrimidin-6-yl]methyl]-2-isopropyl-3-oxo-1,5,6,8-tetrahydroimidazo[1,5-a]pyrazin-8a-yl]acetic acid] | 100 | 0.3 | > 775
CCOC(=O)C1=C(CN2CCN3C(=O)N(C(C)(C)C(=O)O)C[C@@H]3C2)NC(c2nccs2)=N[C@H]1c1cccc(F)c1Cl [Example 32, (R)-6-[(S)-2-(1-Carboxy-1-methyl-ethyl)-3-oxo-hexahydro-imidazo[1,5-a]pyrazin-7-ylmethyl]-4-(2-chloro-3-fluoro-phenyl)-2-thiazol-2-yl-1,4-dihydro-pyrimidine-5-carboxylic acid ethyl ester] | 199 | 1.6 | > 701
COC(=O)C1=C(CN2CCN3C(=O)N(C(C)(C)CC(=O)O)C[C@@H]3C2)NC(c2nccs2)=N[C@H]1c1ccc(F)cc1Cl [Example 33, 3-[(8aS)-7-[[(4R)-4-(2-chloro-4-fluoro-phenyl)-5-methoxycarbonyl-2-thiazol-2-yl-1,4-dihydropyrimidin-6-yl]methyl]-3-oxo-5,6,8,8a-tetrahydro-1H-imidazo[1,5-a]pyrazin-2-yl]-3-methyl-butanoic acid] | 30 | 2.5 | > 748
COC(=O)C1=C(CN2CCN3C(=O)N(C(C)(C)CC(=O)O)C[C@@H]3C2)NC(c2nccs2)=N[C@H]1c1ccc(F)c(F)c1C [Example 37, 3-[(8aS)-7-[[(4S)-4-(3,4-difluoro-2-methyl-phenyl)-5-methoxycarbonyl-2-thiazol-2-yl-1,4-dihydropyrimidin-6-yl]methyl]-3-oxo-5,6,8,8a-tetrahydro-1H-imidazo[1,5-a]pyrazin-2-yl]-3-methyl-butanoic acid] | 17 | 2.5 | 422 (≈ 700 µM)
COC(=O)C1=C(CN2CCN3C(=O)N([C@H]4C[C@H](C(=O)O)C4)C[C@@H]3C2)NC(c2nccs2)=N[C@H]1c1ccc(F)cc1Cl [Example 39, 3-[(2S,8aR)-7-[[(4R)-4-(2-chloro-4-fluoro-phenyl)-5-methoxycarbonyl-2-thiazol-2-yl-1,4-dihydropyrimidin-6-yl]methyl]-3-oxo-5,6,8,8a-tetrahydro-1H-imidazo[1,5-a]pyrazin-2-yl]cyclobutanecarboxylic acid] | 30 | 0.4 | > 770
COC(=O)C1=C(CN2CCN3C(=O)N([C@H]4CCC[C@H]4C(=O)O)C[C@@H]3C2)NC(c2nccs2)=N[C@H]1c1ccc(F)cc1Cl [Example 51, (1R,2S)-2-[(8aS)-7-[[(4R)-4-(2-chloro-4-fluoro-phenyl)-5-methoxycarbonyl-2-thiazol-2-yl-1,4-dihydropyrimidin-6-yl]methyl]-3-oxo-5,6,8,8a-tetrahydro-1H-imidazo[1,5-a]pyrazin-2-yl]cyclopentanecarboxylic acid] | 31 | 2.0 | 589 (≈ 954 µM)
CCOC(=O)C1=C(CN2CCN3C(=O)N(CCCC(=O)O)C[C@@H]3C2)NC(c2nccs2)=N[C@H]1c1cccc(F)c1Cl [Example 53, 4-[(8aS)-7-[[(4R)-4-(2-chloro-3-fluoro-phenyl)-5-ethoxycarbonyl-2-thiazol-2-yl-1,4-dihydropyrimidin-6-yl]methyl]-3-oxo-5,6,8,8a-tetrahydro-1H-imidazo[1,5-a]pyrazin-2-yl]butanoic acid] | 19 | 5.1 | > 723
CCOC(=O)C1=C(CN2CCN3C(=O)N(CCOCC(=O)O)CC3C2)NC(c2nccs2)=N[C@H]1c1cccc(F)c1Cl (stereo partly drawn) [Example 67, 2-[2-[7-[[(4R)-4-(2-chloro-3-fluoro-phenyl)-5-ethoxycarbonyl-2-thiazol-2-yl-1,4-dihydropyrimidin-6-yl]methyl]-3-oxo-5,6,8,8a-tetrahydro-1H-imidazo[1,5-a]pyrazin-2-yl]ethoxy]acetic acid] | 438 | 4.7 | > 794
CCOC(=O)C1=C(CN2CCN3C(=O)N(CCCOCC(=O)O)CC3C2)NC(c2nccs2)=N[C@H]1c1cccc(F)c1Cl (stereo partly drawn) [Example 68, 2-[3-[7-[[(4R)-4-(2-chloro-3-fluoro-phenyl)-5-ethoxycarbonyl-2-thiazol-2-yl-1,4-dihydropyrimidin-6-yl]methyl]-3-oxo-5,6,8,8a-tetrahydro-1H-imidazo[1,5-a]pyrazin-2-yl]propoxy]acetic acid] | 143 | 4.5 | > 794
COC(=O)C1=C(CN2CCN3C(=O)N(C4CCC(C(=O)O)CC4)C[C@@H]3C2)NC(c2nccs2)=N[C@H]1c1ccc(F)cc1Cl (stereo partly drawn) [Example 72, 4-[(8aS)-7-[[(4R)-4-(2-chloro-4-fluoro-phenyl)-5-methoxycarbonyl-2-thiazol-2-yl-1,4-dihydropyrimidin-6-yl]methyl]-3-oxo-5,6,8,8a-tetrahydro-1H-imidazo[1,5-a]pyrazin-2-yl]cyclohexanecarboxylic acid] | 9 | 5.2 | 551 (≈ 873 µM)
COC(=O)C1=C(CN2CCN3C(=O)N(CC(C)(C)C(=O)O)C[C@@H]3C2)NC(c2nccs2)=N[C@H]1c1ccccc1Cl [Example 74, 3-[(8aS)-7-[[(4R)-4-(2-chlorophenyl)-5-methoxycarbonyl-2-thiazol-2-yl-1,4-dihydropyrimidin-6-yl]methyl]-3-oxo-5,6,8,8a-tetrahydro-1H-imidazo[1,5-a]pyrazin-2-yl]-2,2-dimethyl-propanoic acid] | 36 | 1.0 | > 716
